Data: the supplement of paper PMC10307832

Tests used:
Experiment in all cases: relative viability (nuclei count vs DMSO), 5 days (fraction); higher = more cells survive
Obatoclax + Pictilisib = compound: COC1=CC(c2cc3ccccc3[nH]2)=N/C1=C\c1[nH]c(C)cc1C [Obatoclax] + CS(=O)(=O)N1CCN(Cc2cc3nc(-c4cccc5[nH]ncc45)nc(N4CCOCC4)c3s2)CC1 [Pictilisib] (partner 1 µM)
How it was run: (§1)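 Lung cancer cell lines were pin-tool dosed in 1536-well plates on the day after seeding, with either a lone drug or a fixed anchor-drug dose plus five library-drug doses (not always all listed) in √10 steps. Nuclei were counted on 4× images after 5 days. Relative viability is the ratio of treated-well to vehicle-well nuclei counts, with each value a median of duplicate plates.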

Bortezomib + OSI-027 = compound: CC(C)C[C@H](NC(=O)[C@H](Cc1ccccc1)NC(=O)c1cnccn1)B(O)O [Bortezomib] + COc1cccc2cc(-c3nc([C@H]4CC[C@H](C(=O)O)CC4)n4ncnc(N)c34)[nH]c12 [OSI-027] (partner 0.5 µM)
How it was run: as §1

[1] = compound: CC1=CC(=NN1)NC2=CC(=NC(=N2)/C=C/C3=CC=CC=C3)N4CCN(CC4)C + CS(=O)(=O)CCNCc1ccc(-c2ccc3ncnc(Nc4ccc(OCc5cccc(F)c5)c(Cl)c4)c3c2)o1 [Lapatinib] (partner 2 µM)
How it was run: as §1

Bortezomib + Vorinostat = compound: CC(C)C[C@H](NC(=O)[C@H](Cc1ccccc1)NC(=O)c1cnccn1)B(O)O [Bortezomib] + O=C(CCCCCCC(=O)Nc1ccccc1)NO [Vorinostat] (partner 1 µM)
How it was run: as §1

Row | Cell Line | relative viability (Obatoclax + Pictilisib; first compound 0.01 µM) | relative viability (Obatoclax + Pictilisib; first compound 0.03162 µM) | relative viability (Obatoclax + Pictilisib; first compound 0.1 µM) | relative viability (Obatoclax + Pictilisib; first compound 0.3162 µM) | relative viability (Obatoclax + Pictilisib; first compound 1 µM) | relative viability (Bortezomib + OSI-027; first compound 0.0002 µM) | relative viability (Bortezomib + OSI-027; first compound 0.000632 µM) | relative viability (Bortezomib + OSI-027; first compound 0.002 µM) | relative viability (Bortezomib + OSI-027; first compound 0.006325 µM) | relative viability (Bortezomib + OSI-027; first compound 0.02 µM) | relative viability ([1]; first compound 0.08 µM) | relative viability ([1]; first compound 0.253 µM) | relative viability ([1]; first compound 0.8 µM) | relative viability ([1]; first compound 2.53 µM) | relative viability ([1]; first compound 8 µM) | relative viability (Bortezomib + Vorinostat; first compound 0.0002 µM) | relative viability (Bortezomib + Vorinostat; first compound 0.000632 µM) | relative viability (Bortezomib + Vorinostat; first compound 0.002 µM) | relative viability (Bortezomib + Vorinostat; first compound 0.006325 µM) | relative viability (Bortezomib + Vorinostat; first compound 0.02 µM)
1 | NCI-H520 | 0.3 | 0.336 | 0.318 | 0.268 | 0.245 | 0.193 | 0.235 | 0.196 | 0.272 | 0.223 | 0.831 | 0.887 | 0.573 | 0.182 | 0.0952 | 0.825 | 0.713 | 0.177 | 0.15 | 0.138
2 | NCI-H1993 | 0.804 | 0.833 | 0.842 | 1.02 | 0.733 | 0.508 | 0.552 | 0.546 | 0.47 | 0.53 | 0.76 |  | 0.772 | 0.605 | 0.561 | 0.894 | 0.987 | 0.605 | 0.258 | 0.266
3 | NCI-H1437 | 0.374 | 0.436 | 0.495 | 0.452 | 0.378 | 0.86 | 0.825 | 0.871 | 0.138 | 0.132 | 0.853 | 0.909 | 0.833 | 0.347 | 0.105 | 0.782 | 0.875 | 0.555 | 0.219 | 0.172
4 | LC-2-ad | 0.497 | 0.563 | 0.602 | 0.357 | 0.154 | 0.76 | 0.621 | 0.986 | 0.209 | 0.174 | 0.701 | 0.928 | 0.899 | 0.0949 | 0.0594 | 0.74 | 0.68 | 0.665 | 0.209 | 0.185
5 | HARA | 0.449 | 0.445 | 0.426 | 0.379 | 0.352 | 0.439 | 0.322 | 0.616 | 0.0379 | 0.0617 | 0.776 | 0.874 | 0.611 | 0.163 | 0.158 | 0.512 | 0.672 | 0.175 | 0.0466 | 0.0668
6 | NCI-H1975 | 0.299 | 0.313 | 0.258 | 0.292 | 0.199 | 0.674 | 0.624 | 0.196 | 0.111 | 0.106 | 0.933 | 0.923 | 0.894 | 0.203 | 0.149 | 0.661 | 0.655 | 0.154 | 0.123 | 0.135
7 | NCI-H2085 | 0.446 | 0.433 | 0.483 | 0.338 | 0.242 | 0.684 | 0.675 | 0.787 | 0.286 | 0.204 | 0.633 | 0.804 | 0.841 | 0.452 | 0.309 | 0.753 | 0.78 | 0.83 | 0.255 | 0.217
8 | NCI-H3122 | 0.575 | 0.634 | 0.767 | 0.615 | 0.497 | 0.993 | 1.03 | 0.935 | 0.206 | 0.133 | 0.971 | 0.859 | 1.03 | 0.925 | 0.897 | 0.993 | 1.07 | 1.46 | 0.515 | 0.108
9 | NCI-H1651 | 0.58 | 0.567 | 0.634 | 0.256 | 0.188 | 0.661 | 0.641 | 0.416 | 0.109 | 0.11 | 0.924 | 0.941 | 0.803 | 0.313 | 0.123 | 0.568 | 0.571 | 0.534 | 0.587 | 0.134
10 | ABC-1 | 0.72 | 0.929 | 0.737 | 0.468 | 0.26 | 0.476 | 0.296 | 0.193 | 0.183 | 0.2 | 0.957 | 1.15 | 1.23 | 1.13 | 0.453 | 0.689 | 0.415 | 0.288 | 0.29 | 0.312
11 | NCI-H2126 | 0.524 | 0.464 | 0.554 | 0.481 | 0.482 | 0.737 | 0.652 | 0.622 | 0.62 | 0.663 | 0.729 | 0.813 | 0.713 | 0.629 | 0.464 | 0.693 | 0.875 | 0.751 | 0.641 | 0.478
12 | RERF-LC-KJ | 0.543 | 0.587 | 0.538 | 0.513 | 0.334 | 0.581 | 0.547 | 0.555 | 0.216 | 0.24 | 0.878 | 0.875 | 0.839 | 0.716 | 0.292 | 0.661 | 0.726 | 0.624 | 0.463 | 0.219
13 | NCI-H1666 | 0.398 | 0.531 | 0.479 | 0.188 | 0.196 | 0.802 | 0.869 | 0.945 | 0.43 | 0.324 | 0.738 | 0.549 | 0.669 | 0.416 | 0.131 | 1.03 | 1.04 | 1.11 | 0.539 | 0.5
14 | PC-14 | 0.712 | 0.622 | 0.681 | 0.716 | 0.324 |  | 0.765 | 0.714 | 0.033 | 0.0438 | 0.334 | 0.374 | 0.278 | 0.248 | 0.0886 | 0.778 | 0.717 | 0.365 | 0.0298 | 0.0377
15 | NCI-H1915 | 0.967 | 0.823 | 0.968 | 0.989 | 0.933 | 0.582 | 0.507 | 0.613 | 0.186 | 0.0754 | 0.972 | 1.01 | 0.954 | 0.453 | 0.514 | 0.514 | 0.531 | 0.555 | 0.286 | 0.0313
16 | NCI-H661 | 0.392 | 0.363 | 0.33 |  | 0.451 | 0.659 | 0.658 | 0.688 | 0.33 | 0.183 | 0.489 | 0.53 | 0.57 | 0.419 | 0.146 | 0.747 | 0.74 | 0.758 | 0.269 | 0.295
